Laboratory results reported in PMC7180617, “Biological Evaluation of 3-Benzylidenechromanones and Their Spiropyrazolines-Based Analogues” (Molecules, 2020).
Values joined by “and” are separate entries in the source; they are usually repeats but may differ in a detail not shown here. Equal entries are not always repeated.

Key:
[1] = Lipophilicity (logP) by RP-TLC; settings: RP-18 F254S TLC plates
Text: Lipophilicity is one of the most important physicochemical properties in pharmaceutical research. It can be considered a key determinant of the pharmacokinetic properties of a drug. It is commonly measured by the partition coefficient between water and n-octanol, being expressed as logP [14]. […] Knowledge of the partition coefficient is valuable: it is frequently used in structure–activity relationship (SAR) and quantitative structure–activity relationship (QSAR) studies. The experimental lipophilicity of the synthesized compounds, viz. benzylideneflavanones, benzylidenechromanones and spiropyrazolines, was determined using RP-TLC. […] It is important to examine the relationship between structure of the compound and its lipophilicity and cytotoxicity.
The RP-TLC experiments were performed on TLC plates (5 × 10 cm) RP-18 F254S (Merck, Darmstadt, Germany). The synthesized compounds were dissolved in N,N-dimethylformamide DMF (2 mg/mL). […] A DMF-water solvent system was used as mobile phase. […] All experiments were performed at room temperature. The logP parameter was calculated using the equation from the calibration curve.

[2] = system: HL-60 cells; test: Cell cycle analysis by flow cytometry (propidium iodide); assay type: cell-based, human; settings: for cell cycle, G1, mean / cell cycle, G2/M, mean / cell cycle, S, mean: mean of n=2; for cell cycle distribution, G1 / cell cycle distribution, G2 / cell cycle distribution, G2/M: HL-60, 20 h, mean ± SD, n = 2; for cells arrested in G2/M phase: HL-60, concentrations of IC50 and 0.5 × IC50
Experimental: The next stage examined the effects of the selected compounds on cell cycle progression in HL-60 leukemia cells. […] One million HL-60 (subline CCL 240; cell type: promyeloblast) cells in 3 mL of RPMI 1640 supplemented with 20% FBS were seeded on 6-well plate. […] Fixed cells were stored in −20 °C for 2–3 days. Before analysis, cells were centrifuged (10 min, 1500 rpm, 4 °C) and washed twice with cold PBS. After the second wash, the cells were suspended in 1mL of PBS containing 100 μg of RNase A and incubated in 37 °C for 10 min. Next, 5 μL of solution of propidium iodide (1 mg/mL) was added to each sample and incubated in dark for 30 min at RT. Stained cells were analyzed by flow cytometry (FACS Calibur, BD Biosciences, San Jose, CA, USA). Data from 10,000 gated cells were collected using CellQuestPro software (Ver 6.0, Becton Dickinson) and cell cycle analysis was performed with ModFit LT software (Ver 3.2, Verity Software House, Topsham, ME, USA).

[3] = system: HL-60 cells; parameters: method as in PMID 30513785; settings: MTT; cited from earlier work
[4] = system: NALM-6 cells; parameters: method as in PMID 30513785; settings: MTT; cited from earlier work
[5] = system: WM-115 cells; parameters: method as in PMID 30513785; settings: MTT; cited from earlier work
[6] = system: plasmid DNA (pcDNAHisC); test: Digestion of plasmid DNA with BamHI restriction nuclease (DNA-cleavage protection); assay type: biochemical; settings: 10 µM, overnight 37 °C, then BamHI 3 h, agarose gel
Experimental: This cytotoxicity was tested with regard to its effect on the cell cycle and the ability to modify DNA. In addition to the compounds shown in Table 4, two highly-cytotoxic compounds (11 and 12) were also tested. Their structure and biological activity were described in a previous article. […] To test this hypothesis, plasmid DNA was incubated with the test compounds and subsequently digested with BamH1 endonuclease. […] This conclusion is supported by the presence of the circular form of plasmid DNA after digestion with BamH1.
First, 0.5 µg of plasmid DNA (pcDNAHisC, total length 5.5 kbp) containing a unique BamHI restriction site was dissolved in a 1x BamHI reaction buffer and incubated overnight at 37 °C with the test compounds or daunorubicin, which was used as a positive control. The concentration of the test compounds and daunorubicin in the samples was 10 µM. The final concentration of DMSO in all samples was 10%. In the next step, the reaction mixtures were digested with BamHI restriction endonuclease (2 U/µL) for 3 h at 37 °C. Total reaction volume was 10 µL. Products of the reaction were separated in the 1% agarose gel in TBE buffer. The gel was stained with ethidium bromide and DNA fragments were visualized under a UV lamp (GBox, Syngene, Frederick, MD, USA).

[7] = Figure S3, HL-60, 0.5 × IC50 (µM: quercetin 29, 1 1.5, 7 18, 10 4.7, 11 4.5, 12 6)
[8] = Figure S3, HL-60, 0.5 × IC50, each of two repetitions
[9] = Figure S3, HL-60, 1 × IC50 (µM in parenthesis: quercetin 58, 1 3, 7 35, 10 9.4, 11 9, 12 12)
[10] = Figure S3, HL-60, 1 × IC50 (µM: quercetin 58, 1 3, 7 35, 10 9.4, 11 9, 12 12)
[11] = Figure S3, HL-60, 1 × IC50, each of two repetitions
[12] = 0.5 × IC50 (µM: quercetin 29, 2 1.5, 7 18, 12 6, 11 4.5, 10 4.7)
[13] = 1 × IC50 (µM: quercetin 58, 2 3, 7 35, 12 12, 11 9, 10 9.4)

## CCN(CC)c1ccc(C=C2C(=O)c3ccccc3OC2c2ccccc2)cc1 (stereo not shown) [Compound 11, (E)-3-(4-N,N-diethylaminobenzylidene)-2-phenylchroman-4-one]
[1]
  chromatographic logP: 5.69
[2]; [7]
  cell cycle, G1, mean: 5,95%
  cell cycle, G2/M, mean: 59,23%
  cell cycle, S, mean: 34,83%
[2]; [8]
  cell cycle, G1, single repetitions: 3,45% and 8,45%
  cell cycle, G2/M, single repetitions: 64,13% and 54,32%
  cell cycle, S, single repetitions: 27,42% and 42,23%
[2]; [9]
  cell cycle, G1, mean: 3,17%
[2]; [10]
  cell cycle, G2/M, mean: 67,76%
  cell cycle, S, mean: 29,08%
[2]; [11]
  cell cycle, G1, single repetitions: 5,16% and 1,17%
  cell cycle, G2/M, single repetitions: 67,98% and 67,53%
  cell cycle, S, single repetitions: 26,86% and 31,30%
[2]; [12]
  cell cycle distribution, G1: 3.2 ± 2.8%
  cell cycle distribution, G2: 29.1 ± 3.1%
  cell cycle distribution, G2/M: 67.8 ± 0.3%
[2]; [13]
  cell cycle distribution, G1: 6 ± 3.5%
  cell cycle distribution, G2: 34.8 ± 10.5%
  cell cycle distribution, G2/M: 59.2 ± 6.9%
[2]
  cells arrested in G2/M phase: 50–60%
[3]
  IC50: 8.36 ± 0.63 µM
[4]
  IC50: 9.08 ± 0.3 µM
[5]
  IC50: 6.45 ± 0.69 µM

## CCN(CC)c1ccc(/C=C2\COc3ccccc3C2=O)cc1 [Compound 12, (E)-3-(4-N,N-diethylaminobenzylidene)chroman-4-one]
[1]
  chromatographic logP: 3.43
[2]; [7]
  cell cycle, G1, mean: 19,26%
  cell cycle, G2/M, mean: 52,38%
  cell cycle, S, mean: 28,37%
[2]; [8]
  cell cycle, G1, single repetitions: 17,44% and 21,08%
  cell cycle, G2/M, single repetitions: 56,79% and 47,96%
  cell cycle, S, single repetitions: 22,13% and 34,60%
[2]; [9]
  cell cycle, G1, mean: 19,53%
[2]; [10]
  cell cycle, G2/M, mean: 52,44%
  cell cycle, S, mean: 28,03%
[2]; [11]
  cell cycle, G2/M, single repetitions: 44,70% and 60,18%
  cell cycle, S, single repetitions: 27,06% and 29,00%
[2]; [12]
  cell cycle distribution, G1: 19.3 ± 2.6%
  cell cycle distribution, G2: 28.4 ± 8.8%
  cell cycle distribution, G2/M: 52.4 ± 6.2%
[2]; [13]
  cell cycle distribution, G1: 19.5 ± 12.3%
  cell cycle distribution, G2: 28.0 ± 1.4%
  cell cycle distribution, G2/M: 52.4 ± 10.9%
[2]
  cells arrested in G2/M phase: 50–60%
[3]
  IC50: 11.8 ± 1.97 µM
[4]
  IC50: 8.69 ± 0.4 µM
[5]
  IC50: 18.1 ± 3.14 µM

## COc1cccc2c1C(=O)c1c(O)c3c(c(O)c1C2=O)C[C@@](O)(C(C)=O)C[C@@H]3O[C@H]1C[C@H](N)[C@H](O)[C@H](C)O1 [daunorubicin]
[6]
  inhibition of BamHI digestion of plasmid DNA (in words): prevented linearization of DNA
